Measurements: PMC6889161, “Inhibitory characteristics of flavonol-3-O-glycosides from Polygonum aviculare L. (common knotgrass) against porcine pancreatic lipase” (Scientific Reports, 2019)

What was measured:
[1] = target: T1, Lipase from porcine pancreas type II (pancreatic lipase) (Sus scrofa, UniProt P00591); test: Pancreatic lipase inhibition assay (4-MUO substrate, fluorescence); assay type: biochemical; details: for Inhibition mode (type of inhibition): Lineweaver-Burk plots at 50 μM and 100 μM of compound; for IC50: from RRA of PL at various concentrations, nonlinear regression
T1 construct: purchased Sigma-Aldrich Co. (St. Louis, MO, USA); host or cells: porcine pancreas (tissue preparation)
T1 sequence (P00591 1-450): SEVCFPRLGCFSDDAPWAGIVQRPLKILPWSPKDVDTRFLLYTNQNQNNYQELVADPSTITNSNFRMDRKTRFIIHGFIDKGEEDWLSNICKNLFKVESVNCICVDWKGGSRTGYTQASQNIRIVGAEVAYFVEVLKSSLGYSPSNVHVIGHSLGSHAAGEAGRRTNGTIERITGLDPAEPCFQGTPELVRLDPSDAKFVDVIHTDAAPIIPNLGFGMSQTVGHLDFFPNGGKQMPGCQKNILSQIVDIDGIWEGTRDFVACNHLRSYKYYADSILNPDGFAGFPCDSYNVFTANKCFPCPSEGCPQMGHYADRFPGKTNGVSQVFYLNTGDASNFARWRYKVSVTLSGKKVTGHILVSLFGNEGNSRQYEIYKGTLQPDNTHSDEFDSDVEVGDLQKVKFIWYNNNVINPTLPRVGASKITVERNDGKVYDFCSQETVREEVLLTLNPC
Method: The PL assay using 4-MUO as a substrate was conducted as described previously with slight modification[28],[29]. Lipase from porcine pancreas type II (i.e., pancreatic lipase) was dissolved in 50 mM Tris-HCl buffer (pH 8.0) to give 10 mg/mL, and centrifuged at 5,000 g for 10 min to remove insoluble material before the enzyme assay. Then, 50 µL of 0.5 mM 4-MUO solution dissolved in the above buffer and 100 µL of the sample solution dissolved in methanol (i.e., the inhibitor solution) were mixed in 96-well microplate to form the reaction system. The enzymatic hydrolysis was initiated by adding 50 µL of the PL solution to the reaction system (final 250 units/mL) at 37 °C. […] The inhibitory activities against PL were calculated for comparison with each other, as follows:1 Inhibition(%)=A0−AS/A0×100 where A0 is the relative fluorescence unit after the reaction for 30 min in the absence of sample (i.e., only methanol) and AS is the fluorescence unit in the presence of sample.
To determine the IC50, the RRA of PL in the presence of the sample at various concentrations was evaluated. The reaction of PL was measured by the same procedure described above, and the RRA was calculated from the following equation:2 Relativeresidualactivity(%)=vS/v0×100 where ν0 is the initial velocity of the reaction in the absence of sample (i.e., only methanol) and νS is the initial velocity in the presence of sample. […] The type of inhibition was elucidated by evaluating the changes of kinetic parameters from Lineweaver-Burk plot as follows:3 1/v=Km/Vmax1/[S]+1/Vmax where [S] is the concentration of substrate, v is the initial velocity of the reaction, Vmax is the maximum initial velocity when substrate approaches infinite concentration, and Km is the dissociation constant of the enzyme-substrate complex (i.e., the Michaelis constant).

pancreatic lipase (PL) = system: T2, pancreatic lipase (PL); test: Fluorescence emission spectroscopy (tryptophan fluorescence quenching of PL); assay type: binding, porcine; details: for kq (bimolecular quenching constant): calculated from KSV with τ0 = 1.59 ns; for KSV (Stern-Volmer quenching constant): excitation 295 nm, 40 µM PL; for KA (binding constant) / n (number of binding sites): double-logarithmic equation
T2 construct: purchased Sigma-Aldrich Co. (St. Louis, MO, USA); host or cells: porcine pancreas (tissue preparation)
Method: The fluorescence spectra of PL in the presence of the sample were measured on a SpectraMax® i3 Multi-Mode Microplate Reader (Molecular Devices) as described previously with slight modification. In brief, aliquots of the sample solution at various concentrations (0−100 µM) were added into 40 µM of PL solution. The mixture was incubated for 30 min at 25 °C and 37 °C, and the fluorescence emission spectra were measured in the range of 315−400 nm upon excitation at 295 nm. The excitation and emission slit widths were set at 9 and 15 nm, respectively. The fluorescence data were analyzed by fitting to the Stern-Volmer equation for analysis of fluorescence quenching[23]:4 F0/F=1+KSV[Q]=1+kqτ0[Q] where F0 and F is the fluorescence intensity in the absence and presence of quencher, respectively, kq is the bimolecular quenching constant, τ0 is the lifetime of fluorescence in the absence of quencher, KSV is the Stern-Volmer quenching constant, and [Q] is the concentration of quencher. KSV was obtained from the slope of a plot of F0/F versus [Q] by linear regression curve fitting, and kq was calculated by KSV, where τ0 is equal to 1.59 ns[31]. The binding constant (KA) and number of binding sites (n) were obtained according to a double-logarithmic equation[32]:5 logF0−F/F=logKA+nlog[Q]

IC50 [1]	Compound	Inhibition mode (type of inhibition) [1]	kq (bimolecular quenching constant) (pancreatic lipase (PL); 25 °C)	KSV (Stern-Volmer quenching constant) (pancreatic lipase (PL); 25 °C)	kq (bimolecular quenching constant) (pancreatic lipase (PL); 37 °C)	KA (binding constant) (pancreatic lipase (PL); 37 °C)	n (number of binding sites) (pancreatic lipase (PL); 37 °C)	KSV (Stern-Volmer quenching constant) (pancreatic lipase (PL); 37 °C)	KA (binding constant) (pancreatic lipase (PL))
	O=c1c(O)c(-c2ccc(O)c(O)c2)oc2cc(O)cc(O)c12 [Quercetin]	competitive inhibition	6.29 10^12 M^−1s^−1	1.00 10^4 M^−1	5.91 10^12 M^−1s^−1	3.57 10^4 M^−1	1.1471	0.94 10^4 M^−1	35700 M⁻¹
	myricetin-3-O-α-L-rhamnopyranoside [Myricitrin]	non-competitive or mixed-type inhibition	7.48 10^12 M^−1s^−1	1.19 10^4 M^−1	7.74 10^12 M^−1s^−1	1.45 10^4 M^−1	1.0228	1.23 10^4 M^−1	14500 M⁻¹
79.4 µM	O=c1c(O)c(-c2ccc(O)cc2)oc2cc(O)cc(O)c12 [Kaempferol]	competitive inhibition	7.67 10^12 M^−1s^−1	1.22 10^4 M^−1	6.48 10^12 M^−1s^−1	2.07 10^4 M^−1	1.1103	1.03 10^4 M^−1	20700 M⁻¹
142 µM	O=c1c(O[C@@H]2O[C@@H](CO)[C@H](O)[C@H]2O)c(-c2ccc(O)c(O)c2)oc2cc(O)cc(O)c12 [Avicularin, quercetin-3-O-α-L-arabinofuranoside]	non-competitive or mixed-type inhibition	3.52 10^12 M^−1s^−1	0.56 10^4 M^−1	3.71 10^12 M^−1s^−1	0.94 10^4 M^−1	1.1119	0.59 10^4 M^−1	9400 M⁻¹

Compound	IC50 [1]	Inhibition mode (type of inhibition) [1]	kq (bimolecular quenching constant) (pancreatic lipase (PL); 25 °C)	KSV (Stern-Volmer quenching constant) (pancreatic lipase (PL); 25 °C)	kq (bimolecular quenching constant) (pancreatic lipase (PL); 37 °C)	KA (binding constant) (pancreatic lipase (PL); 37 °C)	n (number of binding sites) (pancreatic lipase (PL); 37 °C)	KSV (Stern-Volmer quenching constant) (pancreatic lipase (PL); 37 °C)	KA (binding constant) (pancreatic lipase (PL))
C[C@@H]1O[C@@H](Oc2c(-c3ccc(O)c(O)c3)oc3cc(O)cc(O)c3c2=O)[C@H](O)[C@H](O)[C@H]1O [Quercitrin, quercetin-3-O-α-L-rhamnopyranoside]	101 µM	non-competitive or mixed-type inhibition	8.05 10^12 M^−1s^−1	1.28 10^4 M^−1	8.30 10^12 M^−1s^−1	1.00 10^4 M^−1	0.9760	1.32 10^4 M^−1	10000 M⁻¹
